Test results taken from patent publication US10000486B2 (priority 2012, dated 2018).
Where a name gives a salt, the structure may show the parent alone.

Key:
VSVg pseudotyped virus = assay: organism not typed; type: cell-based; details: read-out: Activity (EC50 in μM vs. pseudotyped virus) VSVg
[1] = tested on: Lassa GP-pseudotyped-virus; assay: microbe, parasite or virus in culture; type: cell-based, Lassa fever virus; details: Human immunodeficiency virus 1, read-out: Activity (EC50 in μM vs. pseudotyped virus) Lassa
[2] = tested on: Machupo pseudotyped virus; assay: organism not typed; type: cell-based; details: read-out: Activity (EC50 in μM vs. pseudotyped virus) Machupo

Compound | EC50 (VSVg pseudotyped virus) | EC50 [1] | EC50 [2]
CC(C)Oc1ccc(-n2cnc3cc(/C=C\c4ccc(C(C)(O)C(=O)O)cc4)ccc32)cc1 (stereo not shown) [Compound 55, 2-hydroxy-2-[4-[(Z)-2-[1-(4-isopropoxyphenyl)benzimidazol-5-yl]vinyl]phenyl]propanoic acid] | > 50 µM | < 1 µM | 
CCCCC(O)(CCCC)c1ccc(/C=C\c2ccc3c(c2)ncn3-c2ccc(OC(C)C)cc2)cc1 [Compound 41, 5-[4-[(Z)-2-[1-(4-isopropoxyphenyl)benzimidazol-5-yl]vinyl]phenyl]nonan-5-ol] | 10 to 50 µM | < 1 µM | < 1 µM
CC(C)Oc1ccc(-n2cnc3cc(/C=C\c4ccc(C(O)(C(F)(F)F)C(F)(F)F)cc4)ccc32)cc1 [Compound 47, 1,1,1,3,3,3-hexafluoro-2-[4-[(Z)-2-[1-(4-isopropoxyphenyl)benzimidazol-5-yl]vinyl]phenyl]propan-2-ol] | 1 to 10 µM | < 1 µM | < 1 µM
COc1ccc(-n2cnc3cc(/C=C/c4ccc(C(C)C)cc4)ccc32)cc1 [Compound 3, 5-[(E)-2-(4-isopropylphenyl)vinyl]-1-(4-methoxyphenyl)benzimidazole] | 10 to 50 µM | 1 to 10 µM | 
CCc1ccc(/C=C/c2ccc3c(c2)ncn3-c2ccc(OC(C)(C)C)cc2)cc1 [Compound 14, 1-(4-tert-butoxyphenyl)-5-[(E)-2-(4-ethylphenyl)-vinyl]benzimidazole] | 10 to 50 µM | 1 to 10 µM | 
CCOc1ccc(-n2cnc3cc(/C=C/c4ccc(C(C)(C)C)cc4)ccc32)cc1 [Compound 4, 5-[(E)-2-(4-tert-butylphenyl)vinyl]-1-(4-ethoxyphenyl)-benzimidazole] | 10 to 50 µM | < 1 µM | 
CCOc1ccc(-n2cnc3cc(/C=C/c4ccc(CC)cc4)cnc32)cc1 [Compound 23, 3-(4-ethoxyphenyl)-6-[(E)-2-(4-ethylphenyl)vinyl]imidazo[4,5-b]pyridine] | > 50 µM | 1 to 10 µM | 
CCOc1ccc(-n2cnc3ccc(CCc4ccc(CC)cc4)cc32)cc1 [Compound 35, 1-(4-ethoxyphenyl)-6-[2-(4-ethylphenyl)-ethyl]benzimidazole] | 10 to 50 µM | < 1 µM | < 1 µM
CCOc1ccc(-n2ccc3cc(NCc4ccc(CC)cc4)ccc32)cc1 [Compound 63, 1-(4-ethoxyphenyl)-N-[(4-ethylphenyl)-methyl]indol-5-amine] | 10 to 50 µM | < 1 µM | < 1 µM
CC(C)Oc1ccc(-n2cnc3cc(/C=C\c4ccc(C#N)cc4)ccc32)cc1 [Compound 49, 4-[(Z)-2-[1-(4-isopropoxyphenyl)benzimidazol-5-yl]vinyl]benzonitrile] | 10 to 50 µM | < 1 µM | 
CCOc1ccc(-n2cnc3cc(/C=C/c4ccc(C(C)(C)C)cc4)ccc32)nc1 [Compound 20, 5-[(E)-2-(4-tert-butylphenyl)vinyl]-1-(5-ethoxy-2-pyridyl)benzimidazole hydrochloride] | 1 to 10 µM | < 1 µM | 
COc1ccc(-n2cnc3cc(/C=C/c4ccc(C(C)C)cc4)cnc32)cc1 [Compound 25, 6-[(E)-2-(4-isopropylphenyl)vinyl]-3-(4-methoxyphenyl)imidazo[4,5-b]pyridine] | > 50 µM | 1 to 10 µM | 
CC(C)(C)Oc1ccc(-n2cnc3cc(/C=C/c4ccc(C(C)(C)C)cc4)ccc32)cc1 [Compound 16, 1-(4-tert-butoxyphenyl)-5-[(E)-2-(4-tert-butylphenyl)vinyl]benzimidazole] | 10 to 50 µM | 1 to 10 µM | 
CC(C)Oc1ccc(-n2cnc3cc(/C=C/c4ccc(C(C)(C)C)cc4)ccc32)cc1 [Compound 6, 5-[(E)-2-(4-tert-butylphenyl)vinyl]-1-(4-isopropoxyphenyl)-benzimidazole] | 10 to 50 µM | < 1 µM | 
CC(C)Oc1ccc(-n2cnc3cc(/C=C\c4ccc(CCC=O)cc4)ccc32)cc1 [Compound 44, 3-[4-[(Z)-2-[1-(4-isopropoxyphenyl)benzimidazol-5-yl]vinyl]phenyl]propanal] | 10 to 50 µM | < 1 µM | 
